Test results from patent US10123985B2, “Therapeutic strategies for treating mitochondrial disorders” (Whitehead Institute for Biomedical Research, priority 2015, dated 2018).
“Also recorded” adds a separate entry of the source.

Columns and labels:
[1] = test system: 143B CytB cells; assay: Measurement of NAD+/NADH (NAD/NADH Glo) in 143B CytB cells; assay type: cell-based; conditions: absence or presence of the substance
Protocol: NAD^+/NADH measurements were done using a modified version of manufacturer instructions of NAD/NADH Glo Assay (Promega). Cells were plated and treated as for proliferation assays and cell extracts were taken 6 hours after treatment. For extraction, cells were quickly washed 3 times in ice cold PBS, extracted in 100 μL ice cold lysis buffer (1% Dodecyltrimethylammonium bromide (DTAB) in 0.2 N NaOH diluted 1:1 with PBS), and immediately frozen at −80° C. To measure NADH, 20 μL of sample was moved to PCR tubes and incubated at 75° C. for 30 min, where the basic conditions will selectively degrade NAD^+. To measure NAD^+, 20 μL of the samples was moved to PCR tubes containing 20 μL lysis buffer and 20 μL 0.4 N HCl and incubated at 60° C. for 15 min, where acidic conditions will degrade NADH. Following incubations, samples were allowed to equilibrate to room temperature and then quenched by neutralizing with 20 μL 0.25 M Tris in 0.2 N HCl (NADH) or 20 μL 0.5 M Tris base (NAD^+). Manufacturer instructions were followed thereafter to measure NAD^+/NADH.

[2] = test system: 143B WT cybrid cells; assay: Proliferation assay of respiration-competent 143B WT cybrid cells; assay type: cell-based; conditions: presence or absence of the substance
Protocol: (§1) 143B, A172, H1299, HeLa, U87 and MEF cells were cultured in Dulbecco's Modified Eagle's Medium (DMEM) (Gibco) supplemented with 10% fetal bovine serum (FBS) and penicillin-streptomycin. FL5.12 cells were cultured in the same medium and supplemented with 5 μg/mL recombinant mouse IL-3 (R&D Systems). 143B cybrid cell lines (WT Cybrid and CytB) were cultured in DMEM with 10% FBS, penicillin-streptomycin, and 0.1 mg/mL uridine. All cells incubated at 37° C. with 5% CO2.
(§2) Adherent cell lines growing in log phase were trypsinized, counted, and plated onto 6 well dishes (Corning) in 2 mL complete DMEM and incubated overnight. Initial seeding density was 2E4 cells per well for 143B, A172, H1299, HeLa, 143B WT Cybrid, and MEFs and 3E4 cells for 143B CytB and U87 cells. The following day, one plate of cells was counted to determine the initial cell count at the time of treatment. Cells were washed 2 times with 2 mL phosphate buffered saline (PBS) and 4 mL media premixed with the indicated treatments was added. FL5.12 cells, a suspension cell line, were washed 2 times in PBS and added directly to media containing the indicated treatments and 5 μg/mL recombinant mouse IL-3. Proliferation rate assay media was DMEM without pyruvate containing 10% dialyzed FBS, penicillin-streptomycin, and 0.1 mg/mL uridine, unless otherwise noted. For these cell lines at these seeding densities it was determined that for 4 days the cells maintained logarithmic proliferation (data not shown), therefore final cell counts were measured 4 days after treatment. Cells were counted using Cellometer Auto T4 Plus Cell Counter (Nexcelom Bioscience). Proliferation rate was determined using the following formula: Proliferation Rate (Doublings per day)=(log2(Final cell count (day 5)/Initial cell count (day 1))/4 (days)

[3] = test system: A172, H1299, HeLa, U87, FL5.12, and MEF cell lines; assay: Proliferation assay of a panel of cell lines treated with respiration inhibitors; assay type: cell-based; conditions: rotenone, antimycin or oligomycin plus the substance
Protocol: as §1, §2

[4] = test system: 143B CytB cells; assay: Proliferation assay of respiration-incompetent 143B CytB cybrid cells; assay type: cell-based; conditions: for Proliferation rate of 143B CytB cells: media supplemented with the substance, no pyruvate unless tested, uridine present
Protocol: FL5.12 cells were cultured in the same medium and supplemented with 5 μg/mL recombinant mouse IL-3 (R&D Systems). […] All cells incubated at 37° C. with 5% CO2.
as §2, with “Initial seeding density was 2E4 cells per well for 143B, A172, H1299, HeLa, 143B WT Cybrid, and MEFs and 3E4 cells for 143B CytB and U87 cells.” left out, “For these cell lines at these seeding densities it was determined that for 4 days the cells maintained logarithmic proliferation (data not shown), therefore final cell counts were measured 4 days after treatment.” left out

[5] = test system: 143B cells; assay: Proliferation assay of wild-type 143B cells treated with respiration inhibitors; assay type: cell-based; conditions: for Proliferation of respiration-inhibited 143B cells with supplementation: rotenone, phenformin, antimycin, myxothiazol, azide or oligomycin plus the substance; for Proliferation of rotenone treated 143B cells: wide range of rotenone doses, 1 mM AKB or 20 mM aspartate, 4 days
Protocol: as §1, §2

[6] = test system: MERRF and CYTB cybrids, 143B ρ0 cells; assay: Cell counting assay of cybrids and 143B ρ0 cells; assay type: cell-based; conditions: 6 days; for Proliferation of ETC-deficient cybrids and 143B ρ0 cells: RPMI with uridine, pyruvate (1 mM) or aspartate (10 mM); for Proliferation of ETC-defective cybrids expressing sgGOT1: uridine and pyruvate (1 mM), with or without aspartate (10 mM)
Protocol: Cybrids or 143B ρ0 cells were plated in triplicate in 12 well plates at 5,000-20,000 cells per well in 1.5 mL as described in each experiment. After six days, the entire contents of the well was trypsinized and counted using a Beckman Z2 Coulter Counter with a size selection setting of 8-30 um.
Transmitochondrial cytoplasmic hybrid cells (cybrids) are commonly used to study the mechanisms through which mutations in mitochondrial DNA (mtDNA) impair cellular function (Schon et al., 2012). These cells harbor patient-derived mitochondrial genomes with pathogenic mutations, and, like cells treated with ETC inhibitors, require pyruvate to proliferate in culture (King and Attardi, 1989, 1996). To expand upon our work with pharmacological inhibition of the ETC, we asked if aspartate supplementation rescues the proliferation of cells with genetic ETC defects. We used two patient-derived cybrid cells, the first with a homoplasmic microdeletion in the cytochrome b subunit of complex III (CYTB) associated with a form of parkinsonism and encephalopathy (De Coo et al., 1999; Rana et al., 2000), and the second with a homoplasmic point mutation in the mitochondrially encoded tRNA lysine (MT-TK) associated with myoclonic epilepsy with ragged red fibers (MERRF) (Wallace et al., 1988). To characterize the metabolic needs of these cybrids, as well as cells lacking mtDNA (143B ρ0), we cultured them in media with or without pyruvate or aspartate.

[7] = test system: Jurkat cells; assay: Proliferation assay (Cell Titer Glo, 5 days) of wild type and knock-out Jurkat cells; assay type: cell-based, human; conditions: 5 days
Protocol: sgRNAs (oligonucleotide sequences are indicated above) were cloned into lentiCRISPR-v1 linearized with BsmBI by Gibson Assembly (NEB). sgRNA expressing vector along with lentiviral packaging vectors Delta-VPR and CMV VSVG were transfected into HEK-293T cells using the XTremeGene 9 transfection reagent (Roche). Similarly, for overexpression cell lines, cDNA vectors along with retroviral packaging vectors gag-pol and CMV VSV-G were transfected into HEK-293T cells. Media was changed 24 hours after transfection.

[8] = pyruvate (1 mM), phenformin, piericidin, antimycin

| SMILES | Cellular NAD+/NADH ratio [1] | Proliferation rate of 143B WT cybrid cells [2] | Proliferation of cell line panel with supplementation [3] | Uridine auxotrophy of 143B CytB cells ([4]; AKB in the presence or absence of uridine) | Proliferation rate of 143B CytB cells [4] | Proliferation of respiration-inhibited 143B cells with supplementation [5] | Proliferation of rotenone treated 143B cells [5] | Proliferation of ETC-deficient cybrids and 143B ρ0 cells [6] | Proliferation of ETC-defective cybrids expressing sgGOT1 [6] | Proliferation of phenformin-treated wild-type Jurkat cells with aspartate ([7]; aspartate (10 mM) in RPMI) | Viability and proliferation of phenformin-treated GOT1-null Jurkat cells with aspartate ([7]; aspartate (10 mM) in RPMI) | Cell permeability ([4]; inferred from supra-physiological doses required to restore growth) | Proliferation of ETC inhibitor-treated MDH1-null Jurkat cells with pyruvate ([7]; pyruvate (1 mM)) | Proliferation of ETC inhibitor-treated PC-null Jurkat cells with pyruvate ([7]; pyruvate (1 mM), phenformin (10 μM), antimycin (1 μM) or piericidin (0.5 μM)) | Proliferation of ETC inhibitor-treated wild type Jurkat cells with pyruvate [7, 8] | Viability and proliferation of ETC inhibitor-treated GOT1-null Jurkat cells with pyruvate [7, 8] |
| --- | --- | --- | --- | --- | --- | --- | --- | --- | --- | --- | --- | --- | --- | --- | --- | --- |
| CCC(=O)C(=O)O [AKB, α-ketobutyrate] | sufficient to increase the cellular NAD^+/NADH ratio | does not impact proliferation of 143B WT cybrids | sufficient to restore proliferation in the presence of ETC inhibitors | does not alleviate uridine auxotrophy of 143B CytB cells | rescued proliferation rate of 143B CytB cells to levels similar to what was observed with pyruvate addition | rescued proliferation, with proliferation rates comparable to that observed in untreated cells | restore proliferation in 143B cells over a wide range of rotenone doses |  |  |  |  |  |  |  |  |  |
| N[C@@H](CC(=O)O)C(=O)O [aspartate] | nor did it affect the NAD^+/NADH ratio | did not have gross proliferation differences | rescued ETC inhibitor-induced proliferation decreases in all other cell lines tested |  | capable of supporting exponential growth of 143B CytB cells | Proliferation was restored in response to all ETC inhibitors | restore proliferation in 143B cells over a wide range of rotenone doses | on its own enabled their proliferation; also recorded: can replace pyruvate in enabling the proliferation of patient-derived mtDNA mutant cybrids and 143B ρ0 cells | bypassed the need for GOT1; also recorded: can be bypassed by aspartate | partially reversed the anti-proliferative effects of phenformin on wild-type cells | rescues death of GOT1-null cells upon ETC inhibition; also recorded: prevented the phenformin induced death of GOT1-null cells and even enabled these cells to proliferate in the presence of the drug | nearly impermeable to cells |  |  |  |  |
| CC(=O)C(=O)O [pyruvate] | sufficient to increase the cellular NAD^+/NADH ratio | divide at a similar rate; also recorded: does not impact proliferation of 143B WT cybrids |  |  | divide at a similar rate |  |  | proliferated in media supplemented with pyruvate | requires GOT1; also recorded: enables the proliferation of patient-derived cybrid cells in a GOT1-dependent fashion |  |  |  | did not stimulate aspartate synthesis or rescue proliferation; also recorded: does not rescue the proliferation of phenformin-treated MDH1 null cells | still prevented the anti-proliferative effects of ETC inhibitors; also recorded: can rescue the death of PC-null cells induced by ETC inhibition | almost completely blocked the anti-proliferative effects of several ETC inhibitors | cannot rescue death of GOT1-null cells induced by ETC inhibitors; also recorded: no beneficial effect on the GOT1-null cells |
